Values belong to the compound of their own block, whether it stands above or below them.
What was measured:
[1] = Saliva levels of apigenin in chronic 1% apigenin toothpaste users (Example 12); type: in vivo, human
Description: Two subjects who have used PeroxiCare® with apigenin at a 1% concentration on a chronic basis provided saliva samples at:
Saliva was collected at each time point in 50 ml Falcon tubes and immediately transferred to a freezer. All samples were transported to Tufts University within 24 hours of collection. Apigenin in saliva was quantified using high performance liquid chromatograph (HPLC) with electrochemical detection (ECD). Apigenin in 1 ml saliva was extracted using 3 ml acetonitrile. After 2 min of rigorous vortexing, the mixture was spun at 2,000 rpm for 15 min at 4° C. Supernatant was dried under N2 gas, reconstituted with mobile phase A, and analyzed for apigenin with HPLC-ECD. The limit of quantification (LOQ) for apigenin and EGCG in this assay is 15 and 25 ng/ml saliva, respectively.

[2] = Heat solubilization in Kolliphor RH-40 / Polysorbate 80; type: physicochemical; conditions: curcumin as co-solubilizer
[3] = Solubility in PS80 via the thermal processing method; type: physicochemical
Solubility in water = type: physicochemical; conditions: 20° C.
[4] = Solubilization in Listerine mouth rinse; type: physicochemical
Description: 100 Grams of the Listerine® Resveratrol Containing Mouth Rinse Formulation was Prepared as Follows: • 1. 98.4 grams of the Listerine® caramel colored mouth rinse was added to a 300 ml Pyrex glass beaker. The pH of the Listerine® caramel colored mouth rinse was initially determined via pH indicator strips to be decidedly acidic at approximately 4.5. • 2. 1.2 grams of Resveratrol powder was added to the solution of Step 1. • 3. About 0.2 grams of fine NaOH crystals were added to the mixture from Step 2 and thoroughly mixed. A uniformly caramel colored blend resulted with a measured pH of ˜10. […] The pH of the mixture from Step 3 was adjusted to a pH 6.5 by the addition of about 0.2 grams of citric acid crystals. A transparent solution resulted with a resveratrol concentration of 1.2 mg/ml.
• 1. 98.6 grams of the Listerine® caramel colored mouthrinse was added to a 300 ml Pyrex glass beaker. The pH of the Listerine® caramel colored mouthrinse was initially determined via pH indicator strips to be decidedly acidic at approximately 4.5. • 2. 1.2 grams of Luteolin powder was added to the solution of Step 1. • 3. About 0.2 grams of fine NaOH crystals were added to the mixture from Step 2 and thoroughly mixed. A uniformly caramel colored blend resulted with a measured pH of ˜10. […] The pH of the mixture from Step 2 was adjusted to a pH 8 by the addition of about 0.2 grams of citric acid crystals. […]

[5] = pH for stable aqueous microemulsion; type: physicochemical; conditions: nonionic surfactants Polysorbate 80 and Cremophor/Kolliphor RH-40
Excerpt: In one embodiment, a flavonoid/polyphenol microemulsion can be made as follows: • The mixing of a flavonoid/polyphenol with an alkali metal component (e.g., alkali metal hydroxide(s) and/or alkaline metal salt(s)) to form an alkali metal flavonoid/polyphenol salt within an aqueous solution. • Adding a surfactant in the ratio from about 5 to 20 wt. % of the flavonoid/polyphenol to 95 to 80 wt. % of a surfactant; preferable a nonionic surfactant. • This mixture is thoroughly stirred to form a uniform clear solution. • Adjusting (e.g., acidifying) the alkali metal flavonoid/polyphenol salt with an agent (e.g., an acidic agent such as acetic acid and/or hydrochloric acid) to a pH level required to form a clear and stable microemulsion.
Stable microemulsions with apigenin and the nonionic surfactants, Polysorbate 80 and Cremophor/Kolliphor RH-40, were achieved provided a pH level of 8.0 to 8.5 was maintained. For luteolin, it as determined that a pH of 7 was required to maintain a stable aqueous microemulsion; and for resveratrol, a pH of >4.5 to 7.5.

persistence of apigenin levels in saliva post-brushing [1]: at least 8 hours | apigenin solubilized in PS 80 [2]: more than 5% | apigenin solubilized in RH-40 [2]: more than 5% | stable apigenin concentrate in PS80 ([3]; 5.0 wt. % apigenin in PS80, heated, cooled to ambient): 50 mg/mL
Compound: O=c1cc(-c2ccc(O)cc2)oc2cc(O)cc(O)c12 [Apigenin, 4′,5,7,-trihydroxyflavone]

Water Solubility (Solubility in water): ~5 mg/mL | PS80 Solubility ([3]; 20° C., thermal processing, not the maximum solubility levels): 50 mg/mL
Compound: O.Oc1cc(O)c2c(c1)O[C@H](c1ccc(O)c(O)c1)[C@@H](O)C2 [Catechin]

Compound: O=c1cc(-c2ccc(O)c(O)c2)oc2cc(O)cc(O)c12 [luteolin, 3′,4′,5,7-tetrahydroxyflavone]
concentration in transparent solution ([4]; Listerine mouthrinse, pH 8): 1500 µg/mL | pH level for stable microemulsion [5]: 7

concentration in transparent solution ([4]; Listerine mouth rinse, pH 6.5): 1200 µg/mL
Compound: Oc1ccc(C=Cc2cc(O)cc(O)c2)cc1 [resveratrol]
